The structures appear in SMILES notation. Read-outs that look alike come from different tables or passages of the source.

These results are taken from patent US11267811B2, “Small molecule inhibitors of galectin-3” (BRISTOL-MYERS SQUIBB COMPANY, priority 2017, dated 2022).

The target of this assay is His-tagged recombinant human Gal-3 (hGal-3) (Homo sapiens (Human), UniProt P17931). In words: Gal-3 HTRF assay (His-tagged hGal-3 binding to B-ASF).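 Note: compounds preincubated 30 min with hGal-3, then 1 h with B-ASF, detection via terbium anti-His antibody and streptavidin d2. Control with B-ASF counts as full signal, omitting B-ASF as background.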 In general terms: Time-resolved FRET reads energy transfer from a long-lived donor to a nearby acceptor.
Chain of His-tagged recombinant human Gal-3 (hGal-3) (P17931 whole entry): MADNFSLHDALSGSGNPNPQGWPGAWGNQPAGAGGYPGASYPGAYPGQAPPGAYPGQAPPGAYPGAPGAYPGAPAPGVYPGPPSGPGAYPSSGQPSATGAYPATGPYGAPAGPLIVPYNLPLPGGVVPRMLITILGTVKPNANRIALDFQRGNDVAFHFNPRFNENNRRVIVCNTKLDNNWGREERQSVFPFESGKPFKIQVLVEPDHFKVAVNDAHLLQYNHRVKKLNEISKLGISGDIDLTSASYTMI
The mark [1] stands for this setting: HTRF, hGal-3 15 nM, B-ASF 15 nM, read-out: hGal-3 IC50.

Consider `COCCO[C@@H]1[C@@H](n2cc(-c3cc(F)c(F)c(F)c3)nn2)[C@@H](O)[C@@H](CO)O[C@H]1n1nncc1-c1cccc(Cl)c1` [Example 13], for which, under setting [1], the IC50 is 571 nM.

Turning to `Cc1nc([C@@H]2O[C@H](CO)[C@H](O)[C@H](n3cc(-c4ccc(Cl)c(F)c4F)nn3)[C@H]2O)n(-c2cc(Cl)ccc2Cl)n1` [Example A72], under “read-out: hGal IC50”, the IC50 is 11 nM.

In the case of `OC[C@H]1O[C@@H](c2ncnn2-c2ccc(Cl)c(Cl)c2)C[C@@H](n2cc(-c3cc(F)c(F)c(F)c3)nn2)[C@H]1O` [Example 174], under setting [1], the IC50 was determined as 300 nM.

On to `Cc1nc2ccc(-n3cnnc3[C@@H]3O[C@H](CO)[C@H](O)[C@H](n4cc(-c5cc(F)c(F)c(F)c5)nn4)[C@H]3O)cc2[nH]1` [Example 160], for which the IC50 under setting [1] stood at 330 nM.

On to `CO[C@@H]1[C@@H](n2cc(-c3cc(F)c(Cl)c(F)c3)nn2)[C@@H](O)[C@@H](CO)O[C@H]1c1nc(C)nn1-c1ccc2ncsc2c1` [Example A5, (2R,3R,4S,5R,6S)-6-(1-(Benzo[d]thiazol-6-yl)-3-methyl-1H-1,2,4-triazol-5-yl)-4-(4-(4-chloro-3,5-difluorophenyl)-1H-1,2,3-triazol-1-yl)-2-(hydroxymethyl)-5-methoxytetrahydro-2H-pyran-3-ol], for which the IC50 under setting [1] was 20 nM.

Turning to `CSc1cccc(-n2cnnc2[C@@H]2O[C@H](CO)[C@H](O)[C@H](n3cc(-c4cc(F)c(F)c(F)c4)nn3)[C@H]2O)c1` [Example 146], under setting [1], the IC50 came out at 50 nM.

Take `Cc1nc2cccc(-n3cnnc3[C@@H]3O[C@H](CO)[C@H](O)[C@H](n4cc(-c5cc(F)c(F)c(F)c5)nn4)[C@H]3O)c2s1` [Example 139]: the IC50 under setting [1] turned out to be 260 nM.

For `Cc1nc2cc(-n3cnnc3[C@@H]3O[C@H](CO)[C@H](O)[C@H](n4cc(-c5cc(F)c(F)c(F)c5)nn4)[C@H]3O)ccc2n1C` [Example 168], under setting [1], the IC50 stood at 500 nM.

As for `OC[C@H]1O[C@@H](c2oncc2-c2ccc(Cl)c(Cl)c2)[C@H](O)[C@@H](n2cc(-c3cc(F)c(F)c(F)c3)nn2)[C@H]1O` [Example 288, (2R,3R,4S,5R,6R)-2-(4-(3,4-dichlorophenyl)isoxazol-5-yl)-6-(hydroxymethyl)-4-(4-(3,4,5-trifluorophenyl)-1H-1,2,3-triazol-1-yl)tetrahydro-2H-pyran-3,5-diol], the IC50 under setting [1] came out at 4000 nM.

For `Cc1nc2ccc(-n3cnnc3[C@@H]3O[C@H](CO)[C@H](O)[C@H](n4cc(-c5cc(F)c(Br)c(F)c5)nn4)[C@H]3OCC(F)F)cc2s1` [Example 321, (2R,3R,4S,5R,6S)-4-(4-(4-bromo-3,5-difluorophenyl)-1H-1,2,3-triazol-1-yl)-5-(2,2-difluoroethoxy)-2-(hydroxymethyl)-6-(4-(2-methylbenzo[d]thiazol-6-yl)-4H-1,2,4-triazol-3-yl)tetrahydro-2H-pyran-3-ol], the IC50 under setting [1] turned out to be 53 nM.

`OC[C@H]1O[C@@H](c2ncnn2-c2cc(Cl)ccc2Cl)C[C@@H](n2cc(-c3cc(F)c(F)c(F)c3)nn2)[C@H]1O` [Example 177]: the IC50 under setting [1] worked out at 130 nM.

On to `NC(=O)c1cccc(-n2ncnc2[C@H]2C[C@@H](n3cc(-c4cc(F)c(F)c(F)c4)nn3)[C@@H](O)[C@@H](CO)O2)c1` [Example 175], for which, under setting [1], the IC50 was found to be 650 nM.

For `N#Cc1ccc(Cl)cc1-n1cnnc1[C@@H]1O[C@H](CO)[C@H](O)[C@H](n2cc(-c3cc(F)c(Cl)c(F)c3)nn2)[C@H]1O` [Example 312], the IC50 (read-out: hGal3 IC50) was determined as 1600 nM.

Take `CS(=O)(=O)c1cc(-n2cnnc2[C@@H]2O[C@H](CO)[C@H](O)[C@H](n3cc(-c4cc(F)c(F)c(F)c4)nn3)[C@H]2O)ccc1F` [Example 129]: the half-maximal inhibitory concentration (IC50) under setting [1] turned out to be 600 nM.

As to `CO[C@@H]1[C@@H](n2cc(-c3cc(F)c(F)c(F)c3)nn2)[C@@H](O)[C@@H](CO)O[C@H]1c1ncnn1-c1cccc(Cl)c1` [Example 189], under setting [1], the IC50 was 90 nM.

On to `OC[C@H]1O[C@@H](c2nncn2-c2ccc3c(c2)OCO3)[C@H](O)[C@@H](n2cc(-c3cc(F)c(F)c(F)c3)nn2)[C@H]1O` [Example 76], for which the IC50 under setting [1] was determined as 120 nM.

Take `O=S1(=O)Cc2ccc(-n3cnnc3[C@@H]3O[C@H](CO)[C@H](O)[C@H](n4cc(-c5cc(F)c(F)c(F)c5)nn4)[C@H]3O)cc2C1` [Example 99]: under setting [1], the IC50 was found to be 890 nM.

For `CS(=O)(=O)c1nnc([C@@H]2O[C@H](CO)[C@H](O)[C@H](n3cc(-c4cc(F)c(F)c(F)c4)nn3)[C@H]2O)n1-c1ccc(Cl)c(Cl)c1` [Example 279, (2S,3R,4R,5R,6R)-2-(4-(3,4-dichlorophenyl)-5-(methylsulfonyl)-4H-1,2,4-triazol-3-yl)-6-(hydroxymethyl)-4-(4-(3,4,5-trifluorophenyl)-1H-1,2,3-triazol-1-yl)tetrahydro-2H-pyran-3,5-diol], under setting [1], the IC50 amounted to 70 nM.

Turning to `Cc1nc2ccc(-n3cnnc3[C@@H]3O[C@H](CO)[C@H](O)[C@H](n4cc(-c5ccc(Br)c(F)c5)nn4)[C@H]3OCC(F)F)cc2s1` [Example 322, (2R,3R,4S,5R,6S)-4-(4-(4-bromo-3-fluorophenyl)-1H-1,2,3-triazol-1-yl)-5-(2,2-difluoroethoxy)-2-(hydroxymethyl)-6-(4-(2-methylbenzo[d]thiazol-6-yl)-4H-1,2,4-triazol-3-yl)tetrahydro-2H-pyran-3-ol], the IC50 under setting [1] was 72 nM.

Consider `Cc1nc2ccc(-n3ncnc3[C@@H]3O[C@H](CO)[C@H](O)[C@H](n4cc(-c5ccc(NS(C)(=O)=O)c(F)c5)nn4)[C@H]3O)cc2s1` [Example 203], for which the IC50 (read-out: hGal3 IC50) was determined as 2120 nM.

In the case of `COc1ccccc1-n1cnnc1[C@@H]1O[C@H](CO)[C@H](O)[C@H](n2cc(-c3cc(F)c(F)c(F)c3)nn2)[C@H]1O` [Example 86], under setting [1], the IC50 turned out to be 380 nM.

`OC[C@H]1O[C@@H](c2nncn2-c2ccc(Br)cc2)[C@H](O)[C@@H](n2cc(-c3cc(F)c(F)c(F)c3)nn2)[C@H]1O` [Example 88]: the concentration for half-maximal inhibition (IC50) under setting [1] was 360 nM.

Turning to `Cc1nc2cc(F)c(-n3cnnc3[C@@H]3O[C@H](CO)[C@H](O)[C@H](n4cc(-c5cc(F)c(F)c(F)c5)nn4)[C@H]3O)cc2s1` [Example 137], the IC50 under setting [1] came out at 80 nM.

`OC[C@H]1O[C@@H](n2nncc2-c2ccc3cn[nH]c3c2)[C@H](O)[C@@H](n2cc(-c3cc(F)c(F)c(F)c3)nn2)[C@H]1O` [Example 6]: the IC50 under setting [1] came to 494 nM.

In the case of `COC(=O)Nc1ccc(-c2cn([C@H]3[C@@H](O)[C@@H](CO)O[C@@H](c4ncnn4-c4ccc5nc(C)sc5c4)[C@@H]3O)nn2)cc1F` [Example 205], the IC50 (read-out: hGal3 IC50) was determined as 1110 nM.

Take `OC[C@H]1O[C@@H](c2nncn2Cc2nccs2)[C@H](O)[C@@H](n2cc(-c3cc(F)c(F)c(F)c3)nn2)[C@H]1O` [Example 158]: the IC50 under setting [1] is 2150 nM.

As to `Cc1nc([C@@H]2O[C@H](CO)[C@H](O)[C@H](n3cc(-c4ccc5ncsc5c4)nn3)[C@H]2O)n(-c2cc(Cl)ccc2C(F)(F)F)n1` [Example A63], the IC50 (read-out: hGal IC50) amounted to 291 nM.

Turning to `Cc1nc([C@@H]2O[C@H](CO)[C@H](O)[C@H](n3cc(-c4ccc(Cl)c(F)c4F)nn3)[C@H]2O)n(-c2cc(Cl)ccc2Br)n1` [Example A73], where the note is “read-out: hGal IC50”, the IC50 amounted to 10 nM.

As for `Cc1nc2ccc(-n3ncnc3[C@@H]3O[C@H](CO)[C@H](O)[C@H](n4cc(C(N)=O)nn4)[C@H]3O)cc2s1` [Example 194], the IC50 under setting [1] is 4090 nM.

Regarding `Cc1nc2ccc(-n3ncnc3[C@@H]3O[C@H](CO)[C@H](O)[C@H](n4cc(-c5cc(F)c(Cl)c(Cl)c5)nn4)[C@H]3O)cc2s1` [Example 221, (2R,3R,4R,5R,6S)-4-(4-(3,4-dichloro-5-fluorophenyl)-1H-1,2,3-triazol-1-yl)-2-(hydroxymethyl)-6-(1-(2-methylbenzo[d]thiazol-6-yl)-1H-1,2,4-triazol-5-yl)tetrahydro-2H-pyran-3,5-diol], under setting [1], the IC50 came out at 50 nM.

`Cc1nc([C@@H]2O[C@H](CO)[C@H](O)[C@H](n3cc(-c4ccc(Cl)c(F)c4)nn3)[C@H]2O)n(-c2cc(Cl)ccc2Cl)n1` [Example 246]: the IC50 (read-out: hGal3 IC50) stood at 30 nM.

`OC[C@H]1O[C@@H](c2nncn2Cc2ccc(Cl)c(Cl)c2)[C@H](O)[C@@H](n2cc(-c3cc(F)c(F)c(F)c3)nn2)[C@H]1O` [Example 119]: the IC50 under setting [1] was determined as 2790 nM.

As to `OC[C@H]1O[C@@H](c2nncn2-c2cc(Cl)ccc2Cl)[C@H](O)[C@@H](n2cc(-c3ccc(Cl)c(F)c3)nn2)[C@H]1O` [Example 304], for the setting “read-out: hGal3 IC50”, the IC50 amounted to 67 nM.

Take `COc1ccc(-c2cn([C@H]3[C@@H](O)[C@@H](CO)O[C@@H](c4ncnn4-c4ccc5nc(C)sc5c4)[C@@H]3O)nn2)cc1F` [Example 223]: the IC50 under setting [1] was 200 nM.

Take `Cc1nc([C@@H]2O[C@H](CO)[C@H](O)[C@H](n3cc(-c4ccc(Cl)c(F)c4)nn3)[C@H]2O)n(-c2cc(Cl)ccc2C2CC2)n1` [Example A41]: for the setting “read-out: hGal IC50”, the IC50 came out at 59 nM.

As for `Cc1nc([C@@H]2O[C@H](CO)[C@H](O)[C@H](n3cc(-c4cc(F)c(Cl)c(Cl)c4)nn3)[C@H]2O)n(-c2cc(Cl)ccc2Cl)n1` [Example A54], for the setting “read-out: hGal IC50”, the IC50 turned out to be 48 nM.

For `Cc1nc([C@@H]2O[C@H](CO)[C@H](O)[C@H](n3cc(-c4cccc(F)c4)nn3)[C@H]2O)oc1C(=O)O` [Example 301, 2-((2R,3R,4S,5R,6R)-4-(4-(3-fluorophenyl)-1H-1,2,3-triazol-1-yl)-3,5-dihydroxy-6-(hydroxymethyl)tetrahydro-2H-pyran-2-yl)-4-methyloxazole-5-carboxylic acid], under setting [1], the IC50 is 6350 nM.

Regarding `OC[C@H]1O[C@@H](n2nncc2-c2ccc(Cl)c(Cl)c2)C[C@@H](n2cc(-c3cc(F)c(F)c(F)c3)nn2)[C@H]1O` [Example 15, (2R,3R,4R,6R)-6-(5-(3,4-dichlorophenyl)-1H-1,2,3-triazol-1-yl)-2-(hydroxymethyl)-4-(4-(3,4,5-trifluorophenyl)-1H-1,2,3-triazol-1-yl)tetrahydro-2H-pyran-3-ol], the IC50 under setting [1] was determined as 880 nM.

In the case of `CC(C)Oc1ccc(-n2cnnc2[C@@H]2O[C@H](CO)[C@H](O)[C@H](n3cc(-c4cc(F)c(F)c(F)c4)nn3)[C@H]2O)cc1` [Example 103], under setting [1], the IC50 was 700 nM.

Take `Cc1nc([C@@H]2O[C@H](CO)[C@H](O)[C@H](n3cc(-c4c(F)cc(Cl)cc4F)nn3)[C@H]2O)n(-c2cc(Cl)ccc2C(F)(F)F)n1` [Example A69]: the IC50 (read-out: hGal IC50) came out at 56 nM.

On to `O=S(=O)(Nc1nccs1)c1ccc(-n2cnnc2[C@@H]2O[C@H](CO)[C@H](O)[C@H](n3cc(-c4cc(F)c(F)c(F)c4)nn3)[C@H]2O)cc1` [Example 106], for which the IC50 under setting [1] was found to be 760 nM.

As usually defined, the IC50 is the concentration at which inhibition is half-maximal.
